Results on one compound are retold here after US20210381060A1, “CANCER SPECIFIC IMMUNOTHERAPEUTIC TARGETS GENERATED BY CHEMOTHERAPEUTIC DRUG TREATMENT” (Health Research, Inc., priority 2018, published 2021).

The subject of one series is MCF10A p53−/− KO cells. The series can be described thus: RNA-Seq detection of CiPAS (retained-intron polypeptides). The class given is cell-based, human. The conditions noted are these: cells treated with 5-FU and caffeine, not detected with caffeine alone. From the text:
(§1) The following Table 1 provides predicted-CiPAS and includes polypeptide sequences encoded by introns detected with high confidence in RNA-Seq generated from MDA-MB-231 and MCF10A p53−/− KO cells treated with 5-FU and caffeine and not detected in cells treated with caffeine alone. 38 and 76 CiPAS were detected in MDA-MB-231 and MCF10A p53−/− KO cells, respectively, including 18 shared CiPAS. Certain representative and non-limiting chemo-neoepitopes encoded by the CiPaS sequences are shown in bold, with overlapping amino acids in italics.

For another series, the system named is MDA-MB-231. Described as above. The class given is cell-based, human.
From the text: as §1

For another series, the system named is 4T1 tumor cells. The series can be described thus: Tumor challenge with 5FU-treated or untreated 4T1 cells, tumor growth. The class given is in vivo, BALB/cJ mice. The conditions noted are these: FIG. 3B top, 5FU-treated mice (i.p. 100 mg/kg day -7, 50 mg/kg day 0, 20 mg/kg every three days). As for the experimental part: (§2) FIG. 3. BALB/cJ mice were challenged (on the left flank) at day 0 with 150,000 5FU- treated or untreated 4T1 tumor cells. Seven days after the first tumor challenge, they were challenged (on the right flank) with 95,000 5FU- treated or untreated Meth A tumor cells and growth of both tumors was measured. […] Each line represents tumor growth in a single mouse. […] B. (Top panel) 4T1 (un-treated or in vitro-5FU treated) growth curves in 5FU-treated mice (5FU i.p. 100 mg/kg at day -7, 50 mg/kg at day 0 and 20 mg/kg every three days after the first tumor challenge). […] (Bottom panel) The same mice as the top panel were challenged with un-treated or 5FU-treated Meth A cells, one week after challenge with 4T1 cells.
(§3) As known in the art, 4T1 cells are a breast cancer cell line derived from the mammary gland tissue of mouse. Meth A cancer cells are methyl-cholantrene-induced mouse sarcoma cells. […] This Example analyzes whether treatment with 5-FU generates new antigenic entities (such as CiPAS), and if treatment of both cell types produces the same antigens in both cells. If this process occurs, the antigens should be processed and presented identically in both cells of the BALB/c haplotype.
(§4) First, we tested if treatment of cells in vitro with 5-FU, in and of itself, makes the cancer cells grow differently because of cell death, or another phenomenon.

In the next series the test system is MCF10A p53+/+ cell line. The series can be described thus: RT-PCR of cell cycle progression gene mRNA after 5-FU exposure. The class given is cell-based, human. The conditions noted are these: 300 μM 5-FU for 24 h. As for the experimental part: (§5) FIG. 2. […] P53 mutant MDA-MB-231 cells, p53wt MCF10A cells, and MCF10A cells with biallelic frameshift mutation in the p53 gene were treated or untreated with 300uM of 5-FU for 24 h. NMD was inhibited or not with 10 mM caffeine for 4 h before cytoplasmic RNA isolation. “*” symbols indicate RT-PCR amplicons with retained introns.
(§6) The following breast cell lines were used: MDA-MB-231 p53−/−, MCF10A p53+/+ cell line and the derivative of MCF10A p53−/−, all treated or untreated with 300 μM of 5-FU for 24 h. In addition, the NMD pathway was inhibited or not inhibited with caffeine for 4 h before cytoplasmic RNA isolation in order to detect the mRNA species that are degraded due to stop codons contained within retained introns.

A further series concerns MDA-MB-231 p53−/−. The series can be described thus: RT-PCR analysis of intron retention after 5-FU exposure. The conditions noted are these: 300 μM 5-FU for 24 h. The class given is cell-based, human. As for the experimental part:
as §5, §6

The next series concerns MCF10A p53−/−. Described as above. The class given is cell-based, human. The conditions noted are these: 300 μM 5-FU for 24 h. As for the experimental part: as §5, §6
Another series deals with Meth A tumor cells. The series can be described thus: Tumor challenge with 5FU-treated or untreated Meth A cells, tumor growth. The class given is in vivo, BALB/cJ mice. Conditions: for growth of 5-FU treated vs un-treated Meth A cells in vivo (AUC): FIG. 3A, in vitro 5-FU treatment alone, P=0.07; for growth of 5-FU-treated vs un-treated Meth A cells (AUC) in mice previously immunized with 5-FU-treated 4T1 cells: challenge one week after 4T1, P=0.003. The procedure: as §2, §3, §4

Take `O=c1[nH]cc(F)c(=O)[nH]1` [5-FU, 5-fluorouracil]: the “number of CiPAS detected” value came out at 76 CiPAS with MCF10A p53−/− KO cells; 38 CiPAS with MDA-MB-231 (cells treated with 5-FU and caffeine, not detected with caffeine alone). Moreover, in the series on MDA-MB-231 (shared between MDA-MB-231 and MCF10A p53−/− KO cells, 5-FU and caffeine), the “number of shared CiPAS” value is reported as 18 CiPAS. For the same compound, the results for the “growth of 5-FU treated vs un-treated 4T1 cells in vivo (AUC)” value in the series with 4T1 tumor cells and in the series with 4T1 tumor cells (listed as 5FU) were “grow essentially identically” and “grow the same”, respectively. For the same compound, the “MCM10 mRNA in response to 5-FU” value in the series on MCF10A p53+/+ cell line (data not shown) is listed as “repressed”. Also, the “transcription of the mRNA of the CCNE2 cell cycle progression gene in response to 5-FU” value in the series with MCF10A p53+/+ cell line (only in MCF10A cells with p53+/+) was “repressed”. The “extent of retention of 6th intron of the CCNE2 gene” value with MDA-MB-231 p53−/− was “only part of the 6th intron of the CCNE2 gene is retained”; in the series with MCF10A p53−/− it was “the whole intron is retained”. The “intron retention in MCM10 and CCNE2 genes in response to 5-FU” value in the series on MDA-MB-231 p53−/− (only in cells with mutant p53) and in the series on MCF10A p53−/− (only in cells with mutant p53) was “intron retention” in each case. Moreover, the “growth of 5-FU treated vs un-treated Meth A cells in vivo (AUC)” value in the series on Meth A tumor cells is given as “grow identically”; with Meth A tumor cells (listed as 5FU) it was “grow similarly”. In the series on Meth A tumor cells (FIG. 3B bottom), the “slower growth of 5-FU-treated Meth A cells in mice previously challenged with 5-FU-untreated 4T1 cells” value is recorded as “not seen”. In addition, the “growth of 5-FU-treated vs un-treated Meth A cells (AUC) in mice previously immunized with 5-FU-treated 4T1 cells” value with Meth A tumor cells (FIG. 3B bottom) is “grow more slowly”; in the series on Meth A tumor cells (FIG. 3B bottom, listed as 5FU), “significantly lower”. Also, in the series on 4T1 cells, the “number of genes with overexpressed introns in 5-FU treated 4T1 samples” value is reported as 804 genes. Besides, in the series with 4T1 cells, the “number of introns overexpressed in 5-FU treated 4T1 samples” value turned out to be 991 introns.
